Literature values as cited in PubChem BioAssay AID1259409 (Chemical Carcinogenesis Research Information System (CCRIS), 2018).
Values joined by “and” are separate entries in the source; they are usually repeats but may differ in a detail not shown here. Identical values can stand only once.

Tested on: rodent chemically induced tumor inhibition, incidence and multiplicity
Test: CCRIS tumor inhibitor studies
Conditions: 3817-11-6, Dose [Inhibitor]: 0, Promoter: NONE USED

For `CC[C@H](C)[C@@H](NC(=O)[C@@H](CCC(=O)O)NC(=O)[C@@H](CO)NC(=O)[C@@H](CO)NC(=O)[C@H](NC(=O)[C@@H](CC(=O)O)NC(=O)[C@H](NC(=O)[C@H](C)NC(=O)[C@H](C)NC(=O)[C@@H](CC(=O)O)NC(=O)[C@@H](CO)NC(=O)[C@H](N)CS)C(C)C)C(C)C)C(=O)N[C@@H](C(=O)N[C@@H](C(=O)N[C@H](CCCCN)C(=O)N[C@H](CC(=O)O)C(=O)N[C@H](CC(C)C)C(=O)N[C@H](CCCCN)C(=O)N[C@H](CCC(=O)O)C(=O)N[C@H](CCCCN)C(=O)N[C@H](CCCCN)C(=O)N[C@H](CCC(=O)O)C(=O)N[C@@H](C(=O)N[C@@H](C(=O)N[C@H](CCC(=O)O)C(=O)N[C@H](CCC(=O)O)C(=O)N[C@@H](C)C(=O)N[C@H](CCC(=O)O)C(=O)O)C(C)C)C(C)C)C(C)C)[C@H](C)O`, the “tumour outcome (control, treated, inhibition, significance)” value (Carcinogen: N-BUTYL-N-(4-HYDROXYBUTYL)NITROSAMINE, 30 UG THYMOSIN FRACTION 5 IN 100 µL SALINE INJECTED INTO RIGHT THIGH 2/WK FOR 20 WK (STUDY DURATION: 20 WK), Route [Inhibitor]: INTRAMUSCULAR, Species: MOUSE, Strain/Sex: C3H/HEJ/FEMALE, Target Tissue: Type of Lesion: BLADDER: CARCINOMA, Dose [Carcinogen]: 0.05% (W/V) SOLUTION IN DRINKING WATER WITH 0.001% (W/V) TWEEN 80 FOR 20 WK) is listed as 6/11 (55%), 2/11 (18%), 67%, not significant, the “tumour outcome (control, treated, inhibition, significance)” value (Carcinogen: N-BUTYL-N-(4-HYDROXYBUTYL)NITROSAMINE, 30 UG THYMOSIN FRACTION 5 IN 100 µL SALINE INJECTED INTO RIGHT THIGH 2/WK FOR 25 WK (STUDY DURATION: 25 WK), Route [Inhibitor]: INTRAMUSCULAR, Species: MOUSE, Strain/Sex: C3H/HEJ/FEMALE, Target Tissue: Type of Lesion: BLADDER: CARCINOMA, Dose [Carcinogen]: 0.05% (W/V) SOLUTION IN DRINKING WATER WITH 0.001% (W/V) TWEEN 80 FOR 25 WK) is listed as 9/16 (56%), 8/13 (62%), -11%, not significant and the “tumour outcome (control, treated, inhibition, significance)” value (Carcinogen: N-BUTYL-N-(4-HYDROXYBUTYL)NITROSAMINE, 600 UG THYMOSIN FRACTION 5 2/WK FOR 12 WK BEGINNING POST CARCINOGEN TREATMENT (STUDY DURATION: 20 WK), Route [Inhibitor]: SUBCUTANEOUS, Species: MOUSE, Strain/Sex: NON/SHI/MALE, Target Tissue: Type of Lesion: RENAL PELVIS: CARCINOMA, Dose [Carcinogen]: 0.05% IN DRINKING WATER FOR 8 WK) is listed as 3/31 (10%), 5/32 (16%), -60%, not significant and 7/29 (24%), 7/29 (24%), 0%, not significant. The “tumour outcome (control, treated, inhibition, significance)” value (Carcinogen: N-BUTYL-N-(4-HYDROXYBUTYL)NITROSAMINE, 600 UG THYMOSIN FRACTION 5 2/WK FOR 12 WK BEGINNING POST CARCINOGEN TREATMENT (STUDY DURATION: 20 WK), Route [Inhibitor]: SUBCUTANEOUS, Species: MOUSE, Strain/Sex: NON/SHI/MALE, Target Tissue: Type of Lesion: URINARY BLADDER: CARCINOMA, Dose [Carcinogen]: 0.05% IN DRINKING WATER FOR 8 WK) was 25/31 (81%), 15/32 (47%), 42%, p<0.01 and 19/29 (66%), 23/29 (79%), -20%, not significant, the “tumour outcome (control, treated, inhibition, significance)” value (Carcinogen: N-BUTYL-N-(4-HYDROXYBUTYL)NITROSAMINE, 600 UG THYMOSIN FRACTION 5 IN 100 µL SALINE INJECTED INTO RIGHT THIGH 2/WK FOR 30 WK (STUDY DURATION: 30 WK), Route [Inhibitor]: INTRAMUSCULAR, Species: RAT, Strain/Sex: WISTAR/FEMALE, Target Tissue: Type of Lesion: BLADDER: CARCINOMA, Dose [Carcinogen]: 0.025% (W/V) SOLUTION IN DRINKING WATER WITH 0.0005% (W/V) TWEEN 80 FOR 30 WK) was 9/11 (82%), 2/11 (18%), 78%, p<0.05 and the “tumour outcome (control, treated, inhibition, significance)” value (Carcinogen: PHENACETIN, 62-44-2, N-BUTYL-N-(4-HYDROXYBUTYL)NITROSAMINE, Carcinogen: PHENACETIN, 62-44-2, N-BUTYL-N-(4-HYDROXYBUTYL)NITROSAMINE, 60 UG IN 0.1 ML SALINE 2/WK FOR 6 WK CONCURRENTLY WITH BBN TREATMENT (STUDY DURATION: 30 WK), Route [Inhibitor]: SUBCUTANEOUS, Species: MOUSE, Strain/Sex: NON/SHI/MALE, Target Tissue: Type of Lesion: RENAL PELVIS: CARCINOMA, Dose [Carcinogen]: 2% PHENACETIN IN DIET FOR 8 WK FOLLOWED BY 0.05% BBN IN DRINKING WATER FOR 6 WK) was 2/11 (18%), 5/11 (45%), -150%, not significant. For the same molecule, the “tumour outcome (control, treated, inhibition, significance)” value (Carcinogen: PHENACETIN, 62-44-2, N-BUTYL-N-(4-HYDROXYBUTYL)NITROSAMINE, Carcinogen: PHENACETIN, 62-44-2, N-BUTYL-N-(4-HYDROXYBUTYL)NITROSAMINE, 60 UG IN 0.1 ML SALINE 2/WK FOR 6 WK CONCURRENTLY WITH BBN TREATMENT (STUDY DURATION: 30 WK), Route [Inhibitor]: SUBCUTANEOUS, Species: MOUSE, Strain/Sex: NON/SHI/MALE, Target Tissue: Type of Lesion: URINARY BLADDER: CARCINOMA, Dose [Carcinogen]: 2% PHENACETIN IN DIET FOR 8 WK FOLLOWED BY 0.05% BBN IN DRINKING WATER FOR 6 WK) was 2/11 (18%), 2/11 (18%), 0%, not significant and the “tumour outcome (control, treated, inhibition, significance)” value (Carcinogen: PHENACETIN, 62-44-2, N-BUTYL-N-(4-HYDROXYBUTYL)NITROSAMINE, Carcinogen: PHENACETIN, 62-44-2, N-BUTYL-N-(4-HYDROXYBUTYL)NITROSAMINE, 60 UG IN 0.1 ML SALINE 2/WK FOR 6 WK CONCURRENTLY WITH BBN TREATMENT (STUDY DURATION: 34 WK), Route [Inhibitor]: SUBCUTANEOUS, Species: MOUSE, Strain/Sex: NON/SHI/MALE, Target Tissue: Type of Lesion: RENAL PELVIS: CARCINOMA, Dose [Carcinogen]: 2% PHENACETIN IN DIET FOR 12 WK FOLLOWED BY 0.05% BBN IN DRINKING WATER FOR 6 WK) was 9/20 (45%), 12/19 (63%), -40%, not significant.
